Key:
[1] = target: T1, human D4 receptor (D4.2 sub-type) (Homo sapiens, UniProt P21917, DEL265-296); assay: D4 receptor-binding affinity (displacement of 3H-spiperone); settings: 3H-spiperone 0.25 nM, HEK 298 cell membranes, Cheng and Prustoff transformation
T1 construct: expressed in transfected cells; host or cells: HEK 298 (human embryonic kidney); homogenate used
T1 sequence (P21917 with tags, fused parts or gaps DEL265-296): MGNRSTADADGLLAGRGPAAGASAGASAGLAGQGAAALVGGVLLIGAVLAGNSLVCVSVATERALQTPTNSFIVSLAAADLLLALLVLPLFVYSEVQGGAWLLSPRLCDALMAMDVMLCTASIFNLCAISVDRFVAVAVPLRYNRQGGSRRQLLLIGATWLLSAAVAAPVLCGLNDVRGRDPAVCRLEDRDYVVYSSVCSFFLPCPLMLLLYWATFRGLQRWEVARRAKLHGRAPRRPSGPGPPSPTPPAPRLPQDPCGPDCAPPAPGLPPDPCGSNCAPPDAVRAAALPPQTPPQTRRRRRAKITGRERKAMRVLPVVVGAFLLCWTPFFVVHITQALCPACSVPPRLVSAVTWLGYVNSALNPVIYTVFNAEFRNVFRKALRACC
Method: The potency of the test compound to reduce ^3 H-spiperone binding directly correlated to its binding affinity for the receptor.
The cells were then centrifuged in a Sorval centrifuge for 10 minutes, 5000 rpm (GS3 rotor) and the pellets quickly frozen in liquid nitrogen and stored at -80° C. until used in binding assay.
Concentration of receptor protein was determined using the Pierce BCA assay.
The tubes were vortexed and incubated at room temperature for 90 minutes. The binding reaction was stopped by filtering using a Brandell Cell Harvester. The samples were filtered under vacuum over glass fibre filters (Whatman GF/B) presoaked for 2 hours in 0.3% polyethylenimine (PEI) in 50 mM Tris buffer (pH7.4). The filters were then washed 3 times with 5 mL ice cold 50 mM Tris buffer (pH7.4). Individual filter disks were put in scintillation vials (Biovials, Bechman).
The tubes were vortexed and incubated at room temperature for 90 minutes at which time the binding reaction was stopped by filtering. The filters were washed and counted using the same procedure as in the total binding assay described above to give the non-specific binding value (NSB).
The incubation was started by the addition to 12×75 mm polypropylene tubes 500 μl (50 μg protein) membrane homogenate to a solution of 400 μl incubation buffer, 100 μl (0.25 final conc.) ^3 H-spiperone (90Ci/mmol, Amersham, diluted in borosilicate glass vial to) and […] of test compound that was prepared from 1 mM stock dissolved in DMSO and stored at -20° C. in polypropylene cryogenic storage vials until dilution in incubation buffer in borosilicate glass vials. The tubes were vortexed and incubated at room temperature for 90 minutes at which time the binding reaction was stopped by filtering. The filters were washed and counted using the same procedure as in the total binding assay described above to give the displacement binding value (BD).
IC50 was determined from an inhibition response curve, logit-log plot of %B/B0 vs concentration of test compound.
Ki was calculated by the Cheng and Prustoff transformation: […]
where [L] is the concentration of ^3 H-spiperone used in the assay and KD is the dissociation constant of ^3 H-spiperone determined independently under the same binding conditions.

[2] = tested on: human D2 receptor (short isoform) relative to human D4 receptor (D4.2 sub-type); assay: D4 selectivity: D2 versus D4 receptor binding (displacement of 3H-spiperone); settings: D2/D4 ratio, D2 in GH4 C1 cells, D4 in HEK 298 cells
Method: The potency of the test compound to reduce ^3 H-spiperone binding directly correlated to its binding affinity for the receptor. […] When used in the assay, cells were thawed on ice for 20 minutes and then 10 mL of incubation buffer (50 mM Tris, 1 mM EDTA, 4 mM MgCI2, 5 mM KCI, 1.5 mM CaCI2, 120 mM NaCI, pH7.4) was added. […] Concentration of receptor protein was determined using the Pierce BCA assay. […] After 16 hours, fresh media was added to allow the cells to recover for 24 hours. The cells were harvested using versene and then centrifuged in a Sorval centrifuge for 10 minutes, at 5000 rpm (GS3 rotor). Pellets were quickly frozen in liquid nitrogen and stored at -80° C. until used in the binding assays. When used in the assay, cells were thawed on ice for 20 minutes. […] The receptor protein concentration was determined using the Pierce BCA assay. […] The tubes were vortexed and incubated at room temperature for 90 minutes. The binding reaction was stopped by filtering using a Brandell Cell Harvester. The samples were filtered under vacuum over glass fibre filters (Whatman GF/B) presoaked for 2 hours in 0.3% polyethylenimine (PEI) in 50 mM Tris buffer (pH7.4). The filters were then washed 3 times with 5 mL ice cold 50 mM Tris buffer (pH7.4). Individual filter disks were put in scintillation vials (Biovials, Bechman). […] The tubes were vortexed and incubated at room temperature for 90 minutes at which time the binding reaction was stopped by filtering. The filters were washed and counted using the same procedure as in the total binding assay described above to give the non-specific binding value (NSB). […] The tubes were vortexed and incubated at room temperature for 90 minutes at which time the binding reaction was stopped by filtering. The filters were washed and counted using the same procedure as in the total binding assay described above to give the displacement binding value (BD). […] IC50 was determined from an inhibition response curve, logit-log plot of %B/B0 vs concentration of test compound.

D4 receptor = settings: marketed products, background section; read-out: D4 affinity, Ki value; cited from earlier work
[3] = tested on: D4 receptor relative to the D2 receptor; settings: marketed products, background section; cited from earlier work

Compound | Ki [1] | D2/D4 [2] | Ki (D4 receptor) | preference for binding the D4 receptor relative to the D2 receptor [3]
Clc1ccc2c(c1)N=C(N1CCN(Cc3ccccc3)CC1)c1ccccc1O2 [8-Chloro-11-(4-benzyl-1-piperazinyl)-dibenz[b,f][1,4]oxazepine] | 0.019 µM | 31.7 | – | –
N#Cc1ccccc1CN1CCN(C2=Nc3ccccc3Oc3ccccc32)CC1 [11-[4-(2-cyanobenzyl)-1-piperazinyl]dibenz[b,f][1,4]oxazepine] | 0.519 µM | 16.1 | – | –
N#Cc1cccc(CN2CCN(C3=Nc4ccccc4Oc4ccccc43)CC2)c1 [11-[4-(3-cyanobenzyl)-1-piperazinyl]dibenz[b,f][1,4]oxazepine] | 0.134 µM | 21.7 | – | –
N#Cc1ccc(CN2CCN(C3=Nc4ccccc4Oc4ccccc43)CC2)cc1 [11-[4-(4-cyanobenzyl)-1-piperazinyl]dibenz[b,f][1,4]oxazepine] | 0.108 µM | 90.1 | – | –
CN1CCN(C2=Nc3cc(Cl)ccc3Oc3ccccc32)CC1 [isoloxapine] | – | – | ~0.02 µM | about 10 fold
